Experimental findings from patent US4617308A, “7-substituted amino-1-aryl-6,8-difluoro-1,4-dihydro-4-oxo-3-quinolinecarboxylic acids and derivatives thereof as antibacterial agents” (Warner-Lambert Company, priority 1985, dated 1986) are described below.

SMILES strings stand for the structures. ≈ marks a conversion by molar mass, not a printed value.

Test in all cases: In vitro antibacterial activity, microtitration dilution method
What all share (format): cell-based

Experiment [1] has as its system Enterobacter cloacae MA 2646. As to conditions: MA2646, read-out: Minimal Inhibitory Concentration MIC. An excerpt: (§1) The compounds of the invention display anti-bacterial activity when tested by the microtitration dilution method as described in Heifetz, et al, Antimicr. Agents & Chemoth., 6, 124 (1974), which is incorporated herein by reference and illustrated in the following table.

The next experiment deals with Escherichia coli Vogel. The following applies: read-out: Minimal Inhibitory Concentration MIC.
Description: as §1

Experiment [2] has as its system Klebsiella pneumoniae MGH-2. As to conditions: MGH2, read-out: Minimal Inhibitory Concentration MIC.
Description: as §1

In the next experiment the test system is Proteus rettgeri M 1771. As to conditions: Providencia rettgeri, M1771, read-out: Minimal Inhibitory Concentration MIC.
Description: as §1

The test system of experiment [3] is Pseudomonas aeruginosa UI-18. As to conditions: UI18, read-out: Minimal Inhibitory Concentration MIC.
Description: as §1

Experiment [4] deals with Staphylococcus aureus H 228. The following applies: H228, read-out: Minimal Inhibitory Concentration MIC.
Description: as §1

Experiment [5] deals with Staphylococcus aureus UC-76. The following applies: UC76, read-out: Minimal Inhibitory Concentration MIC.
Description: as §1

The subject of experiment [6] is Streptococcus faecalis MGH-2. The following applies: Enterococcus faecalis, MGH2, read-out: Minimal Inhibitory Concentration MIC.
Description: as §1

The test system of experiment [7] is Streptococcus pneumoniae SV-1. As to conditions: SV1, read-out: Minimal Inhibitory Concentration MIC.
Description: as §1

The subject of experiment [8] is Streptococcus pyogenes C-203. As to conditions: C203, read-out: Minimal Inhibitory Concentration MIC.
Description: as §1

With `CCNCC1CCN(c2c(F)cc3c(=O)c(C(=O)O)cn(-c4ccc(F)cc4)c3c2F)C1` (stereo not drawn) [Ex. 1], the MIC in experiment [1] was determined as 0.8 µg/mL (≈ 1.8 µM); in the experiment on Escherichia coli Vogel, 0.8 µg/mL (≈ 1.8 µM); in experiment [2], 1.6 µg/mL (≈ 3.59 µM); in the experiment on Proteus rettgeri M 1771 it was 1.6 µg/mL (≈ 3.59 µM); in experiment [3], 1.6 µg/mL (≈ 3.59 µM); in experiment [4], 0.1 µg/mL (≈ 0.224 µM). Besides, the MIC in experiment [5] worked out at 0.2 µg/mL (≈ 0.449 µM); in experiment [6], 0.2 µg/mL (≈ 0.449 µM); in [7], 0.4 µg/mL (≈ 0.898 µM); in experiment [8], 0.4 µg/mL (≈ 0.898 µM).
On to `CCNCC1CCN(c2c(F)cc3c(=O)c(C(=O)O)cn(-c4ccccc4)c3c2F)C1` (stereo not drawn) [Ex. 3, 7-[3-[(Ethylamino)methyl]-1-pyrrolidinyl]-6,8-difluoro-1,4-dihydro-4-oxo-1-phenyl-3-quinolinecarboxylic acid], for which the MIC stood at 1.6 µg/mL (≈ 3.74 µM) in [1]; 1.6 µg/mL (≈ 3.74 µM) in the experiment on Escherichia coli Vogel; 1.6 µg/mL (≈ 3.74 µM) in [2]; 6.3 µg/mL (≈ 14.7 µM) in the experiment with Proteus rettgeri M 1771; 6.3 µg/mL (≈ 14.7 µM) in [3]; 0.8 µg/mL (≈ 1.87 µM) in [4]. Also, the MIC stood at 0.2 µg/mL (≈ 0.468 µM) in experiment [5], 0.8 µg/mL (≈ 1.87 µM) in experiment [6], 1.6 µg/mL (≈ 3.74 µM) in experiment [7] and 1.6 µg/mL (≈ 3.74 µM) in experiment [8].
As to `NCC1CCN(c2c(F)cc3c(=O)c(C(=O)O)cn(-c4ccccc4)c3c2F)C1` (stereo not drawn) [Ex. 4, 7-[3-(Aminomethyl)-1-pyrrolidinyl]-6,8-difluoro-1,4-dihydro-4-oxo-1-phenyl-3-quinoline carboxylic acid], the MIC in experiment [1] stood at 0.4 µg/mL (≈ 1 µM); in the experiment with Escherichia coli Vogel it was 0.2 µg/mL (≈ 0.501 µM); in experiment [2] it was 0.8 µg/mL (≈ 2 µM); in the experiment with Proteus rettgeri M 1771, 1.6 µg/mL (≈ 4.01 µM); in experiment [3], 1.6 µg/mL (≈ 4.01 µM); in experiment [4] it was 0.2 µg/mL (≈ 0.501 µM). In addition, the MIC in experiment [5] was determined as 0.1 µg/mL (≈ 0.25 µM); in experiment [6] it was 0.2 µg/mL (≈ 0.501 µM); in experiment [7], 0.2 µg/mL (≈ 0.501 µM); in experiment [8], 0.2 µg/mL (≈ 0.501 µM).
